Like-named read-outs stand apart in the source and are kept apart here.
Tests used:
F. trinervia PEPC = target: T1, F. trinervia PEPC (Flaveria trinervia, UniProt P30694); test: biochemical; assay type: biochemical
T1 construct: the full-length ppcA gene of PEPC from F. trinervia (EMBL-Bank X61304); made in house; host or cells: Escherichia coli BL21(DE3)
T1 sequence (P30694 1-966): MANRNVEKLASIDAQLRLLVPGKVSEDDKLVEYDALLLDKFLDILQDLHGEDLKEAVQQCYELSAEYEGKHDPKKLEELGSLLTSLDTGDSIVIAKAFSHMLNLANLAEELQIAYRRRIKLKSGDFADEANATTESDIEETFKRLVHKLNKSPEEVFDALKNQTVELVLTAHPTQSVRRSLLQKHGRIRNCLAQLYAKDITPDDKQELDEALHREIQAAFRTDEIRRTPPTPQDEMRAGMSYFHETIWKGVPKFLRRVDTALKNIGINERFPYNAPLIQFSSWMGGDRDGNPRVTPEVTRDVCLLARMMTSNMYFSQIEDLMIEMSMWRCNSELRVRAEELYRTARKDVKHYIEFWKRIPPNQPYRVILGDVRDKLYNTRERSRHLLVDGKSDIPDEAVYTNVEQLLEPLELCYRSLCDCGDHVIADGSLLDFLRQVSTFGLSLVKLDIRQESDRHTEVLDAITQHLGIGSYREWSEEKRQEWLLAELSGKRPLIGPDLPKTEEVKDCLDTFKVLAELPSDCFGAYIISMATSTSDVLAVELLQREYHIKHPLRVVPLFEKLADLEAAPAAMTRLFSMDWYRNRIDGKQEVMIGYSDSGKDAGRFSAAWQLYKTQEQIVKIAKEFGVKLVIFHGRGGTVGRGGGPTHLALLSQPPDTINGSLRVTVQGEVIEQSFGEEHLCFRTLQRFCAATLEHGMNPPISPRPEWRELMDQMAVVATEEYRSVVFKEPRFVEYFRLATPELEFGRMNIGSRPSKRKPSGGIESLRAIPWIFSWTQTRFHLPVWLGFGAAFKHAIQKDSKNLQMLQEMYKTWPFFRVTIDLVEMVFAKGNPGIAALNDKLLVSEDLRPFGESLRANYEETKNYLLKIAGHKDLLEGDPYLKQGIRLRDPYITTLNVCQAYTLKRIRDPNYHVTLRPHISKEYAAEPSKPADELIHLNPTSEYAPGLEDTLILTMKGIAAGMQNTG

[1] = system: Escherichia coli K-12 MG1655; test: Bacterial growth in microscale cultivation, E. coli; assay type: cell-based; conditions: relative to control; for activity at 8 µM / activity at 80 µM / activity at 800 µM: Escherichia coli
Outline: (§1)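 In a BioLector microscale system shaken at 1200 rpm, growth was tracked by backscatter at 620 nm, and final signal, growth rate (h⁻¹) and lag-phase length were scored against DMSO-only controls. Starting OD600 was 0.5, or 0.25 for B. subtilis. Inhibitors came from DMSO stocks, with trans-chalcone capped at 400 μM and 2'-hydroxychalcone at 100 μM.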

[2] = system: Pseudomonas putida KT2440; test: Bacterial growth in microscale cultivation, P. putida; assay type: cell-based; conditions: relative to control; for activity at 8 µM / activity at 80 µM / activity at 400 µM: Pseudomonas putida
Outline: as §1

Bacillus subtilis 168 = test: Bacterial growth in microscale cultivation, B. subtilis; assay type: cell-based; conditions: for activity at 8 µM / activity at 80 µM / activity at 800 µM / activity at 160 µM / Lag Phase: relative to control
Outline: as §1

## O=C(/C=C/c1ccccc1)c1ccccc1 [Compound 1, trans-Chalcone]
F. trinervia PEPC; C4 PEPC over C3 isoform
  Selectivity C4/C3: 1.5 fold
F. trinervia PEPC; IC50 F. trinervia PEPC, C4 PEPC
  IC50: 77.5 ± 2.7 µM
[1]; MG1655, complex medium, 8 µM, read-out: Final Backscatter
  activity at 8 µM: 99%
[1]; MG1655, complex medium, 8 µM, read-out: Growth rate
  activity at 8 µM: 105%
[1]; MG1655, complex medium, 80 µM, read-out: Final Backscatter
  activity at 80 µM: 97.4%
[1]; MG1655, complex medium, 80 µM, read-out: Growth rate
  activity at 80 µM: 109%
[1]; MG1655, complex medium, 800 µM, read-out: Final Backscatter
  activity at 800 µM: 108%
[1]; MG1655, complex medium, 800 µM, read-out: Growth rate
  activity at 800 µM: 94.7%
[1]; MG1655, minimal medium, 8 µM, read-out: Final Backscatter
  activity at 8 µM: 100%
[1]; MG1655, minimal medium, 8 µM, read-out: Growth rate
  activity at 8 µM: 97.5%
[1]; MG1655, minimal medium, 80 µM, read-out: Final Backscatter
  activity at 80 µM: 95.1%
[1]; MG1655, minimal medium, 80 µM, read-out: Growth rate
  activity at 80 µM: 104%
[1]; MG1655, minimal medium, 800 µM, read-out: Final Backscatter
  activity at 800 µM: 103%
[1]; MG1655, minimal medium, 800 µM, read-out: Growth rate
  activity at 800 µM: 107%
[1]; complex medium, 8 µM
  Lag Phase: 102,4%
[1]; complex medium, 80 µM
  Lag Phase: 102,4%
[1]; complex medium, 800 µM
  Lag Phase: 101,2%
[1]; minimal medium, 8 µM
  Lag Phase: 99,1%
[1]; minimal medium, 80 µM
  Lag Phase: 101,8%
[1]; minimal medium, 800 µM
  Lag Phase: 97,8%
[2]; KT2440, complex medium, 8 µM, read-out: Final Backscatter
  activity at 8 µM: 95.3%
[2]; KT2440, complex medium, 8 µM, read-out: Growth rate
  activity at 8 µM: 98.4%
[2]; KT2440, complex medium, 80 µM, read-out: Final Backscatter
  activity at 80 µM: 96.7%
[2]; KT2440, complex medium, 80 µM, read-out: Growth rate
  activity at 80 µM: 100%
[2]; KT2440, complex medium, 400 µM, read-out: Final Backscatter
  activity at 400 µM: 97.3%
[2]; KT2440, complex medium, 400 µM, read-out: Growth rate
  activity at 400 µM: 103%
[2]; KT2440, minimal medium, 8 µM, read-out: Final Backscatter
  activity at 8 µM: 94.4%
[2]; KT2440, minimal medium, 8 µM, read-out: Growth rate
  activity at 8 µM: 112%
[2]; KT2440, minimal medium, 80 µM, read-out: Final Backscatter
  activity at 80 µM: 94.2%
[2]; KT2440, minimal medium, 80 µM, read-out: Growth rate
  activity at 80 µM: 113%
[2]; KT2440, minimal medium, 400 µM, read-out: Final Backscatter
  activity at 400 µM: 100%
[2]; KT2440, minimal medium, 400 µM, read-out: Growth rate
  activity at 400 µM: 119%
[2]; complex medium, 8 µM
  Lag Phase: 100,6%
[2]; complex medium, 80 µM
  Lag Phase: 101,8%
[2]; complex medium, 400 µM
  Lag Phase: 103,0%
[2]; minimal medium, 8 µM
  Lag Phase: 98,9%
[2]; minimal medium, 80 µM
  Lag Phase: 99,3%
[2]; minimal medium, 400 µM
  Lag Phase: 98,1%
Bacillus subtilis 168; Bacillus subtilis, 168, complex medium, 8 µM, read-out: Final Backscatter
  activity at 8 µM: 95.4%
Bacillus subtilis 168; Bacillus subtilis, 168, complex medium, 8 µM, read-out: Growth rate
  activity at 8 µM: 115%
Bacillus subtilis 168; Bacillus subtilis, 168, complex medium, 80 µM, read-out: Final Backscatter
  activity at 80 µM: 99%
Bacillus subtilis 168; Bacillus subtilis, 168, complex medium, 80 µM, read-out: Growth rate
  activity at 80 µM: 119%
Bacillus subtilis 168; Bacillus subtilis, 168, complex medium, 800 µM, read-out: Final Backscatter
  activity at 800 µM: 103%
Bacillus subtilis 168; Bacillus subtilis, 168, complex medium, 800 µM, read-out: Growth rate
  activity at 800 µM: 130%
Bacillus subtilis 168; Bacillus subtilis, 168, minimal medium, 8 µM, read-out: Final Backscatter
  activity at 8 µM: 89.6%
Bacillus subtilis 168; Bacillus subtilis, 168, minimal medium, 8 µM, read-out: Growth rate
  activity at 8 µM: 118%
Bacillus subtilis 168; Bacillus subtilis, 168, minimal medium, 80 µM, read-out: Final Backscatter
  activity at 80 µM: 88.8%
Bacillus subtilis 168; Bacillus subtilis, 168, minimal medium, 80 µM, read-out: Growth rate
  activity at 80 µM: 105%
Bacillus subtilis 168; Bacillus subtilis, 168, minimal medium, 160 µM, read-out: Final Backscatter
  activity at 160 µM: 89.5%
Bacillus subtilis 168; Bacillus subtilis, 168, minimal medium, 160 µM, read-out: Growth rate
  activity at 160 µM: 97.3%
Bacillus subtilis 168; Bacillus subtilis, 168, minimal medium, 800 µM, read-out: Final Backscatter
  activity at 800 µM: 83.6%
Bacillus subtilis 168; Bacillus subtilis, 168, minimal medium, 800 µM, read-out: Growth rate
  activity at 800 µM: 93.3%
Bacillus subtilis 168; Minimal medium, highest concentration tested (10× IC50) if not stated otherwise
  Influence on bacterial growth: lag↑ (2× IC50)
Bacillus subtilis 168; complex medium, 8 µM
  Lag Phase: 103,5%
Bacillus subtilis 168; complex medium, 80 µM
  Lag Phase: 103,5%
Bacillus subtilis 168; complex medium, 800 µM
  Lag Phase: 101,2%
Bacillus subtilis 168; minimal medium, 8 µM
  Lag Phase: 111,6%
Bacillus subtilis 168; minimal medium, 80 µM
  Lag Phase: 109,9%
Bacillus subtilis 168; minimal medium, 160 µM
  Lag Phase: 110,6%
Bacillus subtilis 168; minimal medium, 800 µM
  Lag Phase: 121,3%

From article PMC4893628, “Chalcone-based Selective Inhibitors of a C4 Plant Key Enzyme as Novel Potential Herbicides” (Scientific Reports, 2016)
